Reference: ChEMBL document CHEMBL1201862, “PubChem BioAssay data set” (2004)
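Five compound concentrations were applied to cells in 96-well plates for 48 hours; endpoints were derived by simple linear interpolation of the resulting dose-response curve. GI50 is the concentration that inhibits growth by half.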 Active and inactive are the calls of the source. No stated cut-off is given here; in the data, active = GI50 up to about 1.1 µM and inactive = higher.

Assays:
Assay in all cases: NCI-60 cell line screen, 48 h
786-0 = tested on: 786-0
ACHN = tested on: ACHN
COLO 205 = tested on: COLO 205
HCT-15 = tested on: HCT-15
HOP-62 = tested on: HOP-62
IGROV-1 = tested on: IGROV-1
KM12 = tested on: KM12
LOX IMVI = tested on: LOX IMVI
M14 = tested on: M14
MCF7 = tested on: MCF7
MDA-MB-231 = tested on: MDA-MB-231
OVCAR-5 = tested on: OVCAR-5
OVCAR-8 = tested on: OVCAR-8
PC-3 = tested on: PC-3
SF-295 = tested on: SF-295
SK-MEL-2 = tested on: SK-MEL-2
SK-OV-3 = tested on: SK-OV-3
SNB-75 = tested on: SNB-75
SR = tested on: SR
TK-10 = tested on: TK-10

| SMILES | GI50 (786-0) | GI50 (ACHN) | GI50 (COLO 205) | GI50 (HCT-15) [µM] | GI50 (HOP-62) | GI50 (IGROV-1) | GI50 (KM12) | GI50 (LOX IMVI) | GI50 (M14) | GI50 (MCF7) | GI50 (MDA-MB-231) | GI50 (OVCAR-5) | GI50 (OVCAR-8) | GI50 (PC-3) | GI50 (SF-295) | GI50 (SK-MEL-2) | GI50 (SK-OV-3) | GI50 (SNB-75) | GI50 (SR) | GI50 (TK-10) |
| --- | --- | --- | --- | --- | --- | --- | --- | --- | --- | --- | --- | --- | --- | --- | --- | --- | --- | --- | --- | --- |
| CC(=NNC(=S)Nc1cccc(C)c1)c1cccc(C(C)=NNC(=S)Nc2cccc(C)c2)n1 | 8.18 µM (inactive) | 7.24 µM (inactive) | 8 µM (inactive) | 15.2 | 17 µM (inactive) | 10.8 µM (inactive) | 0.851 µM (active) | 15.5 µM (inactive) | 11.8 µM (inactive) | 22.9 µM (inactive) | 19 µM (inactive) | 34.8 µM (inactive) | 11 µM (inactive) | 22.3 µM (inactive) | 6.19 µM (inactive) | 13.3 µM (inactive) | 44.4 µM (inactive) | 17.5 µM (inactive) | 5.25 µM (inactive) | 20.3 µM (inactive) |
| CCN(CC)CCC(=O)c1ccc(Oc2ccc(F)cc2)cc1 | 14.8 µM (inactive) | 18.4 µM (inactive) | 19.2 µM (inactive) | 18.2 | 22.3 µM (inactive) | 20.3 µM (inactive) | 12.2 µM (inactive) | 15.4 µM (inactive) | 18.3 µM (inactive) | 17.9 µM (inactive) | 17.1 µM (inactive) | 17.9 µM (inactive) | 22.9 µM (inactive) | 24 µM (inactive) | 39.4 µM (inactive) | 46.2 µM (inactive) | > 100 µM (inactive) | 26.7 µM (inactive) | 12.5 µM (inactive) | 17.5 µM (inactive) |
| NCCCCC(N)C(=O)N1CCN(c2nc(N3CCCC3)c3nc(Cl)c(NCc4ccccc4)nc3n2)CC1 (stereo not given) | 17.8 µM (inactive) | 19.1 µM (inactive) | 17.4 µM (inactive) | 17.7 | 13.9 µM (inactive) | 14.1 µM (inactive) | 21.8 µM (inactive) | 17.5 µM (inactive) | 19.1 µM (inactive) | 19.6 µM (inactive) | 18.1 µM (inactive) | 19.1 µM (inactive) | 14 µM (inactive) | 17.8 µM (inactive) | 18.5 µM (inactive) | 19 µM (inactive) | 20.2 µM (inactive) | 16.6 µM (inactive) | 18.1 µM (inactive) | 19.2 µM (inactive) |
| NCCN1C(=O)c2ccccc2C1(O)c1ccc(Cl)cc1 (stereo not given) | 17.2 µM (inactive) | 23 µM (inactive) | 19.6 µM (inactive) | 37.3 | 24.2 µM (inactive) | 19 µM (inactive) | 16.9 µM (inactive) | 16.6 µM (inactive) | 19 µM (inactive) | 16.7 µM (inactive) | 15.5 µM (inactive) | 19.7 µM (inactive) | 37.2 µM (inactive) | 20.3 µM (inactive) | 21.9 µM (inactive) | 16.5 µM (inactive) | 24.4 µM (inactive) | 21.9 µM (inactive) | 17.9 µM (inactive) | 17.9 µM (inactive) |
| COc1cc(/C=C2\N=C(c3ccccc3)N(/N=C/c3cc4cc(C)ccc4nc3Cl)C2=O)ccc1O | 37.6 µM (inactive) | 36.6 µM (inactive) | 37.2 µM (inactive) | 40.1 | 49.3 µM (inactive) | 30.1 µM (inactive) | 37.2 µM (inactive) | 37 µM (inactive) | 42.1 µM (inactive) | 25.1 µM (inactive) | 27.8 µM (inactive) | > 100 µM (inactive) | 49.7 µM (inactive) | 20 µM (inactive) | 48.1 µM (inactive) | 12.9 µM (inactive) | 88.1 µM (inactive) | 32.7 µM (inactive) | 18.9 µM (inactive) | 43.2 µM (inactive) |
| CC(=O)O[C@H]1C[C@H]2C(=S)Nc3ccccc3C(=S)N2C1 | > 100 µM (inactive) | > 100 µM (inactive) | > 100 µM (inactive) | > 100 | > 100 µM (inactive) | > 100 µM (inactive) | > 100 µM (inactive) | > 100 µM (inactive) | > 100 µM (inactive) | > 100 µM (inactive) | > 100 µM (inactive) | > 100 µM (inactive) | > 100 µM (inactive) | > 100 µM (inactive) | > 100 µM (inactive) | > 100 µM (inactive) | > 100 µM (inactive) | 88.3 µM (inactive) | > 100 µM (inactive) | > 100 µM (inactive) |
